# According to US6417233B1, “Ubiguinone-containing composition suitable for promoting enhanced intramitochondrial transportation of ubiguinones and methods of using same” (Sigma-Tau HealthScience S.p.A., priority 1998, dated 2002):
# Tested on: normal human photoreceptors cells
# Experiment: In vitro study of photoreceptor membranes exposed to oxido-reductive stress
# Assay type: cell-based
# Settings: exposure to strong electron donor substances; result in words
# Description: The mitochondrial membranes are more basophilic, and they contain more unsaturated lipids than the disc membranes of the outer segments.
substance,measurement,value
chlorpromazines,disc membranes,disrupted the disc membranes in dose dependent manner
same,structure of mitochondrial membranes,slighly altered
